Laboratory results from ChEMBL document CHEMBL1158518, “Synthesis and evaluation of two series of 4'-aza-carbocyclic nucleosides as adenosine A2A receptor agonists” (Bioorg Med Chem Lett, 2010).

Columns and labels:
[1] = target: T1, Adenosine receptor A1 (Homo sapiens, UniProt P30542); experiment: Agonist activity at human adenosine A1 receptor expressed in CHO cells by GTPPgammaS binding assay; assay type: cell-based
T1 sequence (P30542 whole entry): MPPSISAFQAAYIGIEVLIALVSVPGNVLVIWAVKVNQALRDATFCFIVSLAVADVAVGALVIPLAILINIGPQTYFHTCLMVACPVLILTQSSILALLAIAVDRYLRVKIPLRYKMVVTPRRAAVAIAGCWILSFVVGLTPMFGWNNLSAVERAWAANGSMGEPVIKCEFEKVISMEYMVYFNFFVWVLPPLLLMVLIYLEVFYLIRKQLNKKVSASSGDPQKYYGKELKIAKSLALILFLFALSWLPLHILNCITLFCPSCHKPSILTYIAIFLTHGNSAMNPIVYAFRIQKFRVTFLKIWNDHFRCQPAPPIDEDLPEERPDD

[2] = target: T2, Adenosine receptor A3 (Homo sapiens, UniProt P0DMS8); experiment: Agonist activity at human adenosine A3 receptor expressed in CHO cells by GTPPgammaS binding assay; assay type: cell-based
T2 sequence (P0DMS8 whole entry): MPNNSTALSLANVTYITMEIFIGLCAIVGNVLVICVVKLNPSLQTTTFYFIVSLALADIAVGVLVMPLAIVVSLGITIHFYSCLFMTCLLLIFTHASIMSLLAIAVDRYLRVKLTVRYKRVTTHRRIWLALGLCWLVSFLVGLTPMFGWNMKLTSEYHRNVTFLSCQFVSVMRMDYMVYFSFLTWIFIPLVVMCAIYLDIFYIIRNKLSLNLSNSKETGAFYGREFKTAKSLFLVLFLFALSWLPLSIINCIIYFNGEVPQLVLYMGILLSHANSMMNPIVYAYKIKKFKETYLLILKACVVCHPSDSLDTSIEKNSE

[3] = target: T3, Adenosine receptor A2a (Homo sapiens, UniProt P29274)
Description: Agonist activity at adenosine A2A receptor in human neutrophils assessed as inhibition of fMLP-induced reactive oxygen species release by chemiluminescence assay

[4] = target: T4, Adenosine receptor A2b (Homo sapiens, UniProt P29275)
T4 sequence (P29275 whole entry): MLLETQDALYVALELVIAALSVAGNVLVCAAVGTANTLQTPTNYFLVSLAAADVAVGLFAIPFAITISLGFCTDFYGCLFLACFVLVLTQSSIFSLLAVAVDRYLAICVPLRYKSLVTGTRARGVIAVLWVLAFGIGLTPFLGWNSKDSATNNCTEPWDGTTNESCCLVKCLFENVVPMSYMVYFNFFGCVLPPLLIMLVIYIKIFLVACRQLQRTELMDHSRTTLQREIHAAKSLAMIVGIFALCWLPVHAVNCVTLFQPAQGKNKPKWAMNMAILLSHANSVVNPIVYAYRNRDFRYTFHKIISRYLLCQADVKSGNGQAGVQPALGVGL
Description: Agonist activity at human adenosine A2B receptor expressed in CHO cells assessed as effect on cAMP production by luciferase reporter gene assay

[5] = target: T3, Adenosine receptor A2a; experiment: biochemical
[6] = tested on: PBMC; experiment: Antiinflammatory activity in human PBMC assessed as inhibition of LPS-induced TNFalpha production after 20 hrs by ELISA; assay type: functional, cell-based
[7] = tested on: PBMC; experiment: Antiinflammatory activity in rat PBMC assessed as inhibition of LPS-induced TNFalpha production after 20 hrs by ELISA
[8] = target: T5, Adenosine receptor A3 (Homo sapiens) (UniProt P0DMS8); experiment: Antagonist activity at human adenosine A3 receptor expressed in CHO cells assessed as I-AB-MECA-induced GTPPgammaS binding response; assay type: functional, cell-based; design: concentration or dose not given beside the values
T5 sequence (whole entry): T2 sequence (P0DMS8 whole entry)

[9] = target: T5, Adenosine receptor A3 (Homo sapiens); experiment: Partial agonist activity at human adenosine A3 receptor expressed in CHO cells assessed as I-AB-MECA-induced GTPPgammaS binding response; assay type: cell-based

T3 sequence (P29274 whole entry): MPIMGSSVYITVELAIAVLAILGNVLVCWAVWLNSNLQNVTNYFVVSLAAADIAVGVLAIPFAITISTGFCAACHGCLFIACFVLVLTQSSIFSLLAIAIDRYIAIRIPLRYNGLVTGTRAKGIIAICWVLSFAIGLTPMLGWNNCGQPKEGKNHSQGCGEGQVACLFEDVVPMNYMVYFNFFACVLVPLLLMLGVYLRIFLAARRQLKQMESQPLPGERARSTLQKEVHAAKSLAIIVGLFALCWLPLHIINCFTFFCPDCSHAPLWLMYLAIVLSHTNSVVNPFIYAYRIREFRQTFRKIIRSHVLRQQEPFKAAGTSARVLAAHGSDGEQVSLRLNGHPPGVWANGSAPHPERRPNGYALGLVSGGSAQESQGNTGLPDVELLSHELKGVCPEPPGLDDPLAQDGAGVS

Row | EC50 [1] | EC50 [2] | IC50 [3] | EC50 [4] | Ki [5] | Activity [8] | Activity [9] | SMILES | IC50 [6] | IC50 [7]
1 | – | – | – | – | 97 nM | – | – | CCC(=O)N[C@H]1C[C@@H](n2cnc3c(NCC(c4ccccc4)c4ccccc4)nc(NCCc4cn(CC(=O)O)cn4)nc32)[C@H](O)[C@@H]1O | – | –
2 | – | – | – | – | 5470 nM | – | – | CC(C)n1cnc(CCNc2nc(NCC(c3ccccc3)c3ccccc3)c3ncn([C@@H]4C[C@H](NC(=O)CCc5ccccc5)[C@@H](O)[C@H]4O)c3n2)c1 | – | –
3 | – | – | – | – | 702 nM | – | – | Nc1nc(N[C@H](CO)Cc2ccccc2)nc2c1ncn2[C@@H]1C[C@H](n2cccn2)[C@@H](O)[C@H]1O | – | –
4 | – | – | – | – | – | – | – | CCNC(=O)[C@H]1O[C@@H](n2cnc3c(N)nc(NCCc4ccc(CCC(=O)O)cc4)nc32)[C@H](O)[C@@H]1O [CGS-21680] | 58 nM | 83 nM
5 | – | – | 160 nM | – | 39 nM | – | – | CCCC(=O)N[C@H]1C[C@@H](n2cnc3c(NCC(c4ccccc4)c4ccccc4)nc(NCCc4cn(C(C)C)cn4)nc32)[C@H](O)[C@@H]1O | – | –
6 | – | – | – | – | > 10000 nM | – | – | Nc1nc(N[C@H](CO)Cc2ccccc2)nc2c1ncn2[C@@H]1C[C@H](n2cc(-c3ccccc3)cn2)[C@@H](O)[C@H]1O | – | –
7 | > 10 µM | 42 nM | 4.7 nM | – | 4.6 nM | – | – | CCC(=O)N[C@H]1C[C@@H](n2cnc3c(NCC(c4ccccc4)c4ccccc4)nc(NCCc4cn(C)cn4)nc32)[C@H](O)[C@@H]1O | – | –
8 | > 10 µM | 2520 nM | 8.3 nM | – | 8 nM | – | – | CCC(=O)N[C@H]1C[C@@H](n2cnc3c(NC(CC)CC)nc(NCCc4cn(C(C)C)cn4)nc32)[C@H](O)[C@@H]1O | 5.9 nM | 458 nM
9 | 4.1 µM | 789 nM | 5.3 nM | > 10 µM | 5.4 nM | > 50% | – | CCC(CC)CNc1nc(NCCc2cn(CC)cn2)nc2c1ncn2[C@@H]1C[C@H](n2cc(CO)cn2)[C@@H](O)[C@H]1O | 21 nM | 3590 nM
10 | > 10 µM | 139 nM | 5.9 nM | > 10 µM | 5.2 nM | – | – | CCC(=O)N[C@H]1C[C@@H](n2cnc3c(NCC(c4ccccc4)c4ccccc4)nc(NCCc4c[nH]cn4)nc32)[C@H](O)[C@@H]1O | – | –
11 | – | – | 67 nM | – | 27 nM | – | – | CC(C)C(=O)N[C@H]1C[C@@H](n2cnc3c(NCC(c4ccccc4)c4ccccc4)nc(NCCc4cn(C(C)C)cn4)nc32)[C@H](O)[C@@H]1O | – | –
12 | > 10 µM | 776 nM | 62 nM | > 10 µM | 182 nM | > 50% | – | CCc1cnn([C@H]2C[C@@H](n3cnc4c(N)nc(N[C@H](CO)Cc5ccccc5)nc43)[C@H](O)[C@@H]2O)c1 | – | –
13 | – | – | 542 nM | – | 382 nM | – | – | CC(C)n1cnc(CCNc2nc(NCC(c3ccccc3)c3ccccc3)c3ncn([C@@H]4C[C@H](NC(=O)C(C)(C)C)[C@@H](O)[C@H]4O)c3n2)c1 | – | –
14 | – | – | – | – | 5490 nM | – | – | Nc1nc(N[C@H](CO)Cc2ccccc2)nc2c1ncn2[C@@H]1C[C@H](n2ccccc2=O)[C@@H](O)[C@H]1O | – | –
15 | – | – | – | – | – | – | – | CCNC(=O)[C@H]1O[C@@H](n2cnc3c(N)ncnc32)[C@H](O)[C@@H]1O [NECA] | 40 nM | 187 nM
16 | > 10 µM | 449 nM | 56 nM | > 10 µM | 229 nM | > 50% | – | Cc1cnn([C@H]2C[C@@H](n3cnc4c(N)nc(N[C@H](CO)Cc5ccccc5)nc43)[C@H](O)[C@@H]2O)c1 | – | –
17 | – | – | – | – | 5410 nM | – | – | Nc1nc(N[C@H](CO)Cc2ccccc2)nc2c1ncn2[C@@H]1C[C@H](n2ncc3ccccc32)[C@@H](O)[C@H]1O | – | –
18 | – | 44 nM | 5 nM | – | 5.2 nM | – | – | CCC(=O)N[C@H]1C[C@@H](n2cnc3c(NCC(c4ccccc4)c4ccccc4)nc(NCCc4cn(CC)cn4)nc32)[C@H](O)[C@@H]1O | – | –
19 | – | – | – | – | 146 nM | – | – | CCc1cnn([C@H]2C[C@@H](n3cnc4c(NCC(c5ccccc5)c5ccccc5)nc(NCCc5cn(CC)cn5)nc43)[C@H](O)[C@@H]2O)c1 | – | –
20 | > 10 µM | 357 nM | 60 nM | – | 16 nM | > 50% | – | CC(C)n1cnc(CCNc2nc(NCC(c3ccccc3)c3ccccc3)c3ncn([C@@H]4C[C@H](NC(=O)C5CC5)[C@@H](O)[C@H]4O)c3n2)c1 | – | –
21 | – | – | – | – | 1670 nM | – | – | CC(C)n1cnc(CCNc2nc(NCC(c3ccccc3)c3ccccc3)c3ncn([C@@H]4C[C@H](NC(=O)Cc5ccccc5)[C@@H](O)[C@H]4O)c3n2)c1 | – | –
22 | > 10 µM | 480 nM | 40 nM | – | 7.9 nM | – | 48% | CC(C)n1cnc(CCNc2nc(NCC(c3ccccc3)c3ccccc3)c3ncn([C@@H]4C[C@H](NC(=O)C5CCC5)[C@@H](O)[C@H]4O)c3n2)c1 | – | –

Row | SMILES | EC50 [1] | EC50 [2] | IC50 [3] | EC50 [4] | Ki [5] | Activity [8] | Activity [9] | IC50 [6] | IC50 [7]
23 | CCCCC#Cc1nc(N)c2ncn([C@@H]3C[C@H](NC(=O)CC)[C@@H](O)[C@H]3O)c2n1 | > 10 µM | 105 nM | 12 nM | > 10 µM | 18 nM | – | – | – | –
24 | CCn1nnc([C@H]2O[C@@H](n3cnc4c(N)nc(N[C@H](CO)Cc5ccccc5)nc43)[C@H](O)[C@@H]2O)n1 [GW-328267] | 0.882 µM | – | 0.4 nM | – | – | > 50% | – | 1.3 nM | 2.9 nM
25 | CCC(=O)N[C@H]1C[C@@H](n2cnc3c(NC(CC)CC)nc(NCCc4cn(CC)cn4)nc32)[C@H](O)[C@@H]1O | > 10 µM | 1640 nM | 2.7 nM | > 10 µM | 5.4 nM | – | – | 4.7 nM | 255 nM
